Results published in the supplement of paper PMC12463676, “Small-molecule dissolution of stress granules by redox modulation benefits ALS models” (Nature Chemical Biology, 2025).

What was measured:
[1] = compound: NC(=O)CCCCC1CCSS1 [lipoamide]; test: thermal stability z-score vs DMSO; higher = more thermally stabilized by treatment; conditions: HeLa, lipoamide concentration 100 µM
Description: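 Cellular thermal proteome profiling in HeLa cells. Cells were treated with 100 µM lipoamide for 1 h, with or without 1 mM arsenate for a further 1 h, then heated to ten temperatures (37-66.3 °C), and soluble protein was quantified by TMT mass spectrometry relative to 0.1% DMSO controls. The thermal stability score (sum of log2 fold changes minus the abundance score) was transformed to a z-score; mean of n = 3 experiments.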

[2] = compound: O=[As]([O-])(O)O.[K+] [potassium arsenate]; test: as above; conditions: HeLa; arsenate concentration 1 mM
Description: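 Cellular thermal proteome profiling in HeLa cells treated with 1 mM arsenate for 1 h (DMSO pretreatment), heated to ten temperatures (37-66.3 °C). Soluble protein was quantified by TMT mass spectrometry relative to DMSO controls; the thermal stability score was transformed to a z-score; mean of n = 3 experiments.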

[3] = arsenate co-treatment: 1 mM arsenate 1 h
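Note: each temperature applied for 3 min, abundance score taken as mean log2 fold change at the two lowest temperatures, z-score obtained by mean subtraction and division by SD.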

Sequence of UniProt O43164 (O43164 whole entry): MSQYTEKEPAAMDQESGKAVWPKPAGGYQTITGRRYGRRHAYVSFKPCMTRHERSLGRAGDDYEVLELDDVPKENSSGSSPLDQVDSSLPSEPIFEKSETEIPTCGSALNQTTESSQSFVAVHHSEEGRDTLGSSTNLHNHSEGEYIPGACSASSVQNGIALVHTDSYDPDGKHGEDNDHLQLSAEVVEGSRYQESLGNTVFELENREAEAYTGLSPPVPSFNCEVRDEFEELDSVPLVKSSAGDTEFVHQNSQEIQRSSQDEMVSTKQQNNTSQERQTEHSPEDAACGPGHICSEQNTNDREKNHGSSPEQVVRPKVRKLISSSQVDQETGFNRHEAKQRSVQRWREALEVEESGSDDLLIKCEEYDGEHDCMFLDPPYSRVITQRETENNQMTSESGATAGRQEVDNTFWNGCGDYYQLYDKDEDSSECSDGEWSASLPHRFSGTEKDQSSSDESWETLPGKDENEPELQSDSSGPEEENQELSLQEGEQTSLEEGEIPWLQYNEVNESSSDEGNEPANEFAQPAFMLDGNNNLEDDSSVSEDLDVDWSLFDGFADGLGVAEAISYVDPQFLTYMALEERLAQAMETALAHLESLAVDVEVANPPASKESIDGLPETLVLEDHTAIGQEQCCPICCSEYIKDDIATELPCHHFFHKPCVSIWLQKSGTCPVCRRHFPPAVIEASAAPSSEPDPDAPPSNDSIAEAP
Sequence of UniProt Q9NWS0 (Q9NWS0 whole entry): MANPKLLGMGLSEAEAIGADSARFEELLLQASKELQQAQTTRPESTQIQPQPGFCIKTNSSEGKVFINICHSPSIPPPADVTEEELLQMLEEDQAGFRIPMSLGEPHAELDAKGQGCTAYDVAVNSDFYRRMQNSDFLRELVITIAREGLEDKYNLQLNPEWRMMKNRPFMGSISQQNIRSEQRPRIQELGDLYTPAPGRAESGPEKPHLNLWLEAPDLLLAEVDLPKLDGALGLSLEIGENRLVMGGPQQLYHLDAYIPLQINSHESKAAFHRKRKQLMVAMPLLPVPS
Sequence of UniProt Q9UPR0 (Q9UPR0 whole entry): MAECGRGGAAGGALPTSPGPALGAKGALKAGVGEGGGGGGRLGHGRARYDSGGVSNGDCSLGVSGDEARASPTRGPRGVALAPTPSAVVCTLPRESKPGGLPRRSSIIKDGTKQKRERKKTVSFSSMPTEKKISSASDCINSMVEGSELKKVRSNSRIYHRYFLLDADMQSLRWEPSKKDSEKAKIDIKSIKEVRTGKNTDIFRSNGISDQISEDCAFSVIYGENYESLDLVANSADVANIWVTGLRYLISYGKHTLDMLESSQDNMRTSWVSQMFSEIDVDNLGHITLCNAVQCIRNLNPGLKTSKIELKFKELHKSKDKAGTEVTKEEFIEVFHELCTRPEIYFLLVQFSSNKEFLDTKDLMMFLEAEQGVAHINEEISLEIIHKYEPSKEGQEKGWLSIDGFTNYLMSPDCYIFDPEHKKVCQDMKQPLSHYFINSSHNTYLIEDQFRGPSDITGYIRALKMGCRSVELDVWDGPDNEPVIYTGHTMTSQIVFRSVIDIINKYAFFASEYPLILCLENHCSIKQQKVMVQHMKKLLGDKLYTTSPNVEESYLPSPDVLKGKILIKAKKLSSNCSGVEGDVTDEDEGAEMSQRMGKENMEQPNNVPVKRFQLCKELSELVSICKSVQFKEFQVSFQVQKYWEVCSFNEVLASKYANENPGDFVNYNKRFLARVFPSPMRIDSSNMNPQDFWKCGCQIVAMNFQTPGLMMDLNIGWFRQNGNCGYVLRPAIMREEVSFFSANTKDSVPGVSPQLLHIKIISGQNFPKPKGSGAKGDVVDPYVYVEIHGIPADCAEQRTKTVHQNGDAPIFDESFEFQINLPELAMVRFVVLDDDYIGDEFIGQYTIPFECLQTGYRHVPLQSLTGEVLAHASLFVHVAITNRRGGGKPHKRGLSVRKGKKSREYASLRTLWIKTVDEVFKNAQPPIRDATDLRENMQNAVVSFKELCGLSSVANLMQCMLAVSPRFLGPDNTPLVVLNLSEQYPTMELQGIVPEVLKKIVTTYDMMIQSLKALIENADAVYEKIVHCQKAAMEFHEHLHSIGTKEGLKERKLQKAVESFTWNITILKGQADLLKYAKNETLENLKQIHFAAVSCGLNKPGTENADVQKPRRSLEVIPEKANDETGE
Sequence of UniProt Q9UG56 (Q9UG56 whole entry): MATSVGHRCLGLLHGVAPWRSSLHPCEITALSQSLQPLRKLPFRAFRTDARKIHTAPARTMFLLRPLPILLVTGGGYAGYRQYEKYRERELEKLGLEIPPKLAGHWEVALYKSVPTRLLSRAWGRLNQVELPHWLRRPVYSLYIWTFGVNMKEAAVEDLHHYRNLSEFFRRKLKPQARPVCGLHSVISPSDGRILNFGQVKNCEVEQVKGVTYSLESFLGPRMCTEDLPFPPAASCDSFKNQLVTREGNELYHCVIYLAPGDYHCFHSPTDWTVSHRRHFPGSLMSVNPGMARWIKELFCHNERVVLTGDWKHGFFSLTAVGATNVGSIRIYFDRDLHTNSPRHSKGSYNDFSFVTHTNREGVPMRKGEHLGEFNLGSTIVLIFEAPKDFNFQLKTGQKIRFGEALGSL
Sequence of UniProt Q99640 (Q99640 whole entry): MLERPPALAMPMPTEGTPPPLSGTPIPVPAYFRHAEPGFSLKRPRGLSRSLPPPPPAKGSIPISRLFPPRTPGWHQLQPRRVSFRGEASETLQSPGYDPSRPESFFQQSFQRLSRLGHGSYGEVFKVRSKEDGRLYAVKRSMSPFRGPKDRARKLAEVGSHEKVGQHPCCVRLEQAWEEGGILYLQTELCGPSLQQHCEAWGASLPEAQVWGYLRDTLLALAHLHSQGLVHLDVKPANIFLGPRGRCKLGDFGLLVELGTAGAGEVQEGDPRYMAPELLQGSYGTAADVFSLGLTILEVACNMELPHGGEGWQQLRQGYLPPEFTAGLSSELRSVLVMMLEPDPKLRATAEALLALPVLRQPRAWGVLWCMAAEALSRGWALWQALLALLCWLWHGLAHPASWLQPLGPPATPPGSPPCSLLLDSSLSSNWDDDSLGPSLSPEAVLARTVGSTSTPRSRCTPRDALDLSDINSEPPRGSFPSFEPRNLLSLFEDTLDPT
Sequence of UniProt Q9BZM1 (Q9BZM1 whole entry): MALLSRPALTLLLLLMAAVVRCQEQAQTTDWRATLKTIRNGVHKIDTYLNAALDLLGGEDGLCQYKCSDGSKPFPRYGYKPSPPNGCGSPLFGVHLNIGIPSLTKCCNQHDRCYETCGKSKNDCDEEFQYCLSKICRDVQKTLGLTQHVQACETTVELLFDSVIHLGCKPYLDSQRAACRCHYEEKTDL
Sequence of UniProt Q5H8A4 (Q5H8A4 whole entry): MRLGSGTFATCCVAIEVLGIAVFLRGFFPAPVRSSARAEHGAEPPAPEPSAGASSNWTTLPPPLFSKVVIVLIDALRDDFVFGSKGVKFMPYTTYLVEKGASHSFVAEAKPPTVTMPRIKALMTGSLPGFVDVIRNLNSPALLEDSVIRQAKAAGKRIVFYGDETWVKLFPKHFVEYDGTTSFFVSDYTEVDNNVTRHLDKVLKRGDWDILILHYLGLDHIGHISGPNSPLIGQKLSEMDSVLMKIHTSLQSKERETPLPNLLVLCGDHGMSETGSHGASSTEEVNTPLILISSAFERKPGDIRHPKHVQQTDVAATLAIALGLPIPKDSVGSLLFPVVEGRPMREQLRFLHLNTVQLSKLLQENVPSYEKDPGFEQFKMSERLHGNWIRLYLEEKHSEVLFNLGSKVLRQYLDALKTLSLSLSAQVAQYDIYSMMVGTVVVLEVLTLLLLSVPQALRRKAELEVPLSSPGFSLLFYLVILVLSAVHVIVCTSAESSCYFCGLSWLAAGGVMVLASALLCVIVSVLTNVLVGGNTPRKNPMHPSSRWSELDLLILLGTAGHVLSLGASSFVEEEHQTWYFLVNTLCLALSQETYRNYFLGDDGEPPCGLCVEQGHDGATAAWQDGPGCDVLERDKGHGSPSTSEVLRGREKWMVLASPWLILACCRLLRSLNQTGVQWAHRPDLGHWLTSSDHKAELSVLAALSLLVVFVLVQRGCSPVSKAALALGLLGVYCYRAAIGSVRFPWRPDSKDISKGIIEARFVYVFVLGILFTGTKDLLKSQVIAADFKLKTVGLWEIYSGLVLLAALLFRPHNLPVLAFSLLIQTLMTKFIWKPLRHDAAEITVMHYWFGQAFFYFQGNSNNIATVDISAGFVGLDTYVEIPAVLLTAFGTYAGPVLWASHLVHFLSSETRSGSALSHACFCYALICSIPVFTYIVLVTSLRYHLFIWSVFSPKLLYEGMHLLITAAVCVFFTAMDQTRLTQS
Sequence of UniProt Q969N2 (Q969N2 whole entry): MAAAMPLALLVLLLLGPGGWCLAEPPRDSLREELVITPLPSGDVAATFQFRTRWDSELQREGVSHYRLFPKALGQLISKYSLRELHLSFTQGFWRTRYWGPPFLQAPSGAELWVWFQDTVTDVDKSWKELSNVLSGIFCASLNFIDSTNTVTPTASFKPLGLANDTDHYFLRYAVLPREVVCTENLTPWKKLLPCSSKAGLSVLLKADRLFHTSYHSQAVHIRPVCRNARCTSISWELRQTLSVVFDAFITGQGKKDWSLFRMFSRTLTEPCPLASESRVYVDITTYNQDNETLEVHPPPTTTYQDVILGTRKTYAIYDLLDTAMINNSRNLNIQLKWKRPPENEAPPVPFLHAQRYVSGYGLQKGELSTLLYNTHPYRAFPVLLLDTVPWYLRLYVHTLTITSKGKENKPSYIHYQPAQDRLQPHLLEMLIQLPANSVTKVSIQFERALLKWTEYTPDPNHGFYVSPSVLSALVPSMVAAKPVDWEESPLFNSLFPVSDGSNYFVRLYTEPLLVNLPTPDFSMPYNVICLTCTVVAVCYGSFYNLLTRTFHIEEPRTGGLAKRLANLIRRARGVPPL
Sequence of UniProt Q9Y237 (Q9Y237 whole entry): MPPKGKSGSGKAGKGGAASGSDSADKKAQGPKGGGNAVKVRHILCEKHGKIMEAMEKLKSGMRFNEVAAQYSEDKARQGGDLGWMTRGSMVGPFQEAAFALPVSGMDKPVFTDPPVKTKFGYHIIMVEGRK

Target	thermal stability z-score [1, 3]	thermal stability z-score ([1]; arsenate co-treatment: none)	thermal stability z-score [2]
PIGG (UniProt Q5H8A4)	-0.479	-0.752	0.14
PIGK (UniProt Q92643)	-1.32	-1.34	-0.123
PIGN (UniProt O95427)	0.0724	-0.0621	0.41
PIGO (UniProt Q8TEQ8)	-1.23	-1.1	-0.779
PIGS (UniProt Q96S52)	-2.47	-2.43	0.44
PIGT (UniProt Q969N2)	-3.54	-2.49	-0.105
PIGU (UniProt Q9H490)	-0.834	-0.665	0.169
PIH1D1 (UniProt Q9NWS0)	1.07	0.114	0.538
PIK3C2A (UniProt O00443)	-0.267	0.213	0.167
PIK3C2B (UniProt O00750)	0.468	0.832	0.971
PIK3C3 (UniProt Q8NEB9)	-0.102	-0.206	-0.484
PIK3CA (UniProt P42336)	-0.275	-0.149	-0.45
PIK3CB (UniProt P42338)	-0.054	-0.193	-0.371
PIK3R2 (UniProt O00459)	-0.263	0.416	-0.17
PIK3R3 (UniProt Q92569)	0.191	-0.186	0.0593
PIK3R4 (UniProt Q99570)	-0.524	-0.155	0.184
PIKFYVE (UniProt Q9Y2I7)	0.00547	-0.0522	-0.189
PIN1 (UniProt Q13526)	0.355	0.305	0.757
PIN4 (UniProt Q9Y237)	0.199	-0.0862	-0.422
PINX1 (UniProt Q96BK5)	-0.717	-0.225	-2.03
PIP4K2A (UniProt P48426)	0.195	0.103	-0.102
PIP4K2B (UniProt P78356)	0.0141	0.0907	0.0439
PIP4K2C (UniProt Q8TBX8)	0.0507	0.12	1.78
PIP5K1A (UniProt Q99755)	-0.948	-0.813	0.951
PIR (UniProt O00625)	3.16	2.76	-1.25
PISD (UniProt Q9UG56)	0.488	0.414	0.0415
PITHD1 (UniProt Q9GZP4)	-0.537	0.337	0.158
PITPNA (UniProt Q00169)	0.386	0.434	-0.787

Target	thermal stability z-score [1, 3]	thermal stability z-score ([1]; arsenate co-treatment: none)	thermal stability z-score [2]
PITPNB (UniProt P48739)	-0.0644	0.129	-1.18
PITPNC1 (UniProt Q9UKF7)	-0.545	-0.37	-0.255
PITRM1 (UniProt Q5JRX3)	0.579	0.327	2.58
PITX1 (UniProt P78337)	0.0195	-0.0855	0.027
PJA2 (UniProt O43164)	-0.202	-0.163	-3.43
PKD2 (UniProt Q13563)	0.277	0.13	0.16
PKM (UniProt P14618)	0.109	0.0166	-0.166
PKMYT1 (UniProt Q99640)	-0.143	-0.144	-0.0435
PKN1 (UniProt Q16512)	-0.436	-0.52	-0.513
PKN2 (UniProt Q16513)	0.0683	0.467	0.144
PKN3 (UniProt Q6P5Z2)	-0.237	0.334	0.231
PKP2 (UniProt Q99959)	0.0483	-0.112	-0.371
PKP3 (UniProt Q9Y446)	-0.116	0.603	0.191
PLA2G4A (UniProt P47712)	-0.308	-0.439	-0.294
PLA2G12A (UniProt Q9BZM1)	-0.0117	-0.134	-0.111
PLA2G15 (UniProt Q8NCC3)	-0.718	-0.487	0.38
PLAA (UniProt Q9Y263)	0.0745	-0.41	-0.0864
PLAUR (UniProt Q03405)	-1.4	-2.11	-0.768
PLBD2 (UniProt Q8NHP8)	-0.0663	0.0581	0.464
PLCB3 (UniProt Q01970)	-0.0239	-0.358	-0.557
PLCD3 (UniProt Q8N3E9)	0.235	0.151	0.0088
PLCG1 (UniProt P19174)	0.538	0.247	0.623
PLCL2 (UniProt Q9UPR0)	-0.2	-0.373	-0.417
PLD1 (UniProt Q13393)	-0.0197	0.0638	0.0184
PLD3 (UniProt Q8IV08)	0.32	0.424	0.817
PLEC (UniProt Q15149)	2.76	2.01	-3.9
PLEKHA1 (UniProt Q9HB21)	-0.0949	-0.105	-0.185
